In patent publication US11751592B2, “Sweetness and taste improvement of steviol glycoside or mogroside sweeteners” (The Coca-Cola Company, priority 2016, dated 2023):
Blank lines part the entries; values can stand above or below the compound they belong to.

How the values were obtained:
panelists [1] = assay: Taste evaluation of sweetness against sucrose solutions, Example 3 (compound 1 with Rebaudioside A); format: in vivo, human; settings: for sweetness, equally sweet to sucrose in acidic water: two panelists
Description: (§1) Ingredients were added to acidic water or acidic water with compound 1 while stirring until solids were visibly dissolved and the sample was poured into a glass bottle and stored at 4° C.
(§2) Taste tests were carried out with two panelists. Bottles were removed from the refrigerator and about 25 ml of beverage was poured into 4 oz-plastic cups. Panelists were given mineral water to rinse their mouth before tasting and between tasting different samples. Unsalted crackers were also given to panelists to eat followed by rinsing their mouth with mineral water before tasting the next sample. The sucrose solutions in Table 4, a sample of Rebaudioside A in acidic water and a sample of compound 1 and Rebaudioside A in acidic water were given to panelists. Panelists were asked to evaluate the sweetness of samples against 7%, 8%, 9%, and 10% sucrose solution and describe the differences in the taste profiles. Panelists were instructed to sip, evaluate the sweetness, and then spit the samples in cups provided for that purpose.

panelists [2] = assay: Taste evaluation of sweetness against sucrose solutions, Example 1 (compound 1 with Rebaudioside M); format: in vivo, human
Description: as §1
Taste tests were carried out with two panelists. Bottles were removed from the refrigerator and about 25 ml of beverage was poured into 4 oz-plastic cups. Panelists were given mineral water to rinse their mouth before tasting and between tasting different samples. Unsalted crackers were also given to panelists to eat followed by rinsing their mouth with mineral water before tasting the next sample.
First, two panelists assessed the sweetness of 5 ppm of compound 1 in acidic water against 1.5% sucrose solution in acidic water.
Sucrose solutions in Table 5, a sample of Rebaudioside M in acidic water and a sample of compound 1 and Rebaudioside M in acidic water were given to panelists. Panelists were asked to evaluate the sweetness of samples against 7%, 8%, 9%, and 10% sucrose solution and describe the differences in the taste profiles. Panelists were instructed to sip, evaluate the sweetness, and then spit the samples in cups provided for that purpose.

panelists [3] = assay: Taste evaluation of sweetness against sucrose solutions, Example 2 (compound 1 with Mogroside V); format: in vivo, human; settings: for sweetness, equally sweet to sucrose in acidic water: two panelists
Description: as §1
as §2, with “Mogroside V” for “Rebaudioside A”, “difference of” for “differences in the”, “profile.” for “profiles.”

[4] = Solubility in water during sample preparation; format: physicochemical; settings: 2.5 mg in 500 g water, initially, before microwave, sonication and agitation
Description: The sample was treated with Microwave (1 min), Sonication (15 min), and agitation (30 min) repeatedly until the solution became visually clear. The solution was cooled at room temperature and citric acid was added.

[5] = 5 ppm compound 1 and 400 ppm Rebaudioside A in acidic water
[6] = 5 ppm compound 1 and 320 ppm Rebaudioside M in acidic water
[7] = 5 ppm compound 1 and 400 ppm Mogroside V in acidic water, both panelists

solubility in water [4]: not completely soluble
SMILES: CC(C)CC(=O)N1CCC[C@H](COc2cccc3c2C(N)=NS(=O)(=O)N3)C1 [compound 1, (S)-1-(3-(((4-amino-2,2-dioxido-1H-benzo[c][1,2,6]thiadiazin-5-yl)oxy)methyl)piperidin-1-yl)-3-methylbutan-1-one]
taste profile: bitterness (panelists [1]; [5]): more bitter
sweetness, equally sweet to sucrose in acidic water (panelists [1]; [5]): 7 % sucrose
sweetness enhancement (panelists [1]; 5 ppm compound 1 in acidic water containing 400 ppm Rebaudioside A): does not enhance the sweetness
sweetness against sucrose solution in acidic water (panelists [2]; 5 ppm compound 1 alone in acidic water, two panelists): < 1.5 % sucrose
taste profile: bitterness (panelists [2]; [6]): no bitterness
taste profile: mouthfeel (panelists [2]; [6]): more mouthfeel
sweetness, equally sweet to sucrose in acidic water (panelists [2]; 5 ppm compound 1 and 320 ppm Rebaudioside M in acidic water, two panelists): 10 % sucrose
taste profile: mouthfeel (panelists [3]; 5 ppm compound 1 and 400 ppm Mogroside V in acidic water, compared to the sample with just Mogroside V, one panelist): more mouthfeel
taste profile: bitterness (panelists [3]; [7]): not bitter
taste profile: sweet linger (panelists [3]; [7]): slight sweet linger
taste profile: sweetness onset (panelists [3]; [7]): slower sweetness onset
sweetness, equally sweet to sucrose in acidic water (panelists [3]; 5 ppm compound 1 and 400 ppm Mogroside V in acidic water): 10 % sucrose

SMILES: C[C@H](CC[C@@H](O[C@@H]1O[C@H](CO[C@@H]2O[C@H](CO)[C@@H](O)[C@H](O)[C@H]2O)[C@@H](O)[C@H](O)[C@H]1O[C@@H]1O[C@H](CO)[C@@H](O)[C@H](O)[C@H]1O)C(C)(C)O)[C@H]1CC[C@@]2(C)[C@@H]3CC=C4[C@@H](CC[C@H](O[C@@H]5O[C@H](CO[C@@H]6O[C@H](CO)[C@@H](O)[C@H](O)[C@H]6O)[C@@H](O)[C@H](O)[C@H]5O)C4(C)C)[C@]3(C)[C@H](O)C[C@]12C [Mogroside V, reference compound]
sweetness, equally sweet to sucrose in acidic water (panelists [3]; 400 ppm Mogroside V in acidic water, without compound 1): 7 % sucrose

SMILES: C=C1C[C@@]23CC[C@H]4[C@@](C)(CCC[C@@]4(C)C(=O)O[C@@H]4O[C@H](CO)[C@@H](O)[C@H](O)[C@H]4O)[C@@H]2CC[C@]1(O[C@@H]1O[C@H](CO)[C@@H](O)[C@H](O[C@@H]2O[C@H](CO)[C@@H](O)[C@H](O)[C@H]2O)[C@H]1O[C@@H]1O[C@H](CO)[C@@H](O)[C@H](O)[C@H]1O)C3 [Rebaudioside A, reference compound]
sweetness, equally sweet to sucrose in acidic water (panelists [1]; 400 ppm Rebaudioside A in acidic water, without compound 1): 7 % sucrose

SMILES: C=C1C[C@@]23CC[C@H]4[C@@](C)(CCC[C@@]4(C)C(=O)O[C@@H]4O[C@H](CO)[C@@H](O)[C@H](O[C@@H]5O[C@H](CO)[C@@H](O)[C@H](O)[C@H]5O)[C@H]4O[C@@H]4O[C@H](CO)[C@@H](O)[C@H](O)[C@H]4O)[C@@H]2CC[C@]1(O[C@@H]1O[C@H](CO)[C@@H](O)[C@H](O[C@@H]2O[C@H](CO)[C@@H](O)[C@H](O)[C@H]2O)[C@H]1O[C@@H]1O[C@H](CO)[C@@H](O)[C@H](O)[C@H]1O)C3 [Rebaudioside M, reference compound]
sweetness, equally sweet to sucrose in acidic water (panelists [2]; 320 ppm Rebaudioside M in acidic water, without compound 1, two panelists): 8 % sucrose
